This passage reports IC50 and extent of cleavage results from article PMC3236199, “Development of Derivatives of 3, 3′-Diindolylmethane as Potent Leishmania donovani Bi-Subunit Topoisomerase IB Poisons” (PLoS ONE, 2011).

Assay [1] relates to DIM resistant DR50 promastigotes. The assay is described as follows: Change in IC50 on prolonged exposure of DIM resistant promastigotes. It is filed as cell-based. Particulars: Leishmania donovani. Here is the method:
L. donovani strain AG83 and DIM resistant parasite DR50 promastigotes were grown at 22°C in M199 liquid media supplemented with 10% FBS as described. Axenic amastigotes were cultured in modified M199 medium (pH 5.3) supplemented with 10 mM sodium succinate, 40 mM HEPES and 25% FCS and maintained at 37°C with 5% CO2.The effect of drugs on the viability of Leishmania parasites was determined by direct microscopic counting using light microscope (40× objective) in a haemocytometer. The cells at the exponential phase were collected and transferred into 24-well plate (3.5×10^6 cells per well). The cells were then incubated for 12 h in the presence of various concentrations of DIM, DPDIM, DMDIM and DMODIM (1, 5, 10, 20 and 50 µM). For other experiments, 10^4 cells were taken and grown in presence of the respective derivatives for a period of 30 days. For each 5 day interval, a small amount of aliquots were taken out. After incubation the cells were centrifuged and cell pellet was washed with PBS (1×) twice and finally suspended in 1 ml PBS (1×). […] One drop of the mixture was transferred to haemocytometer and the clear (live) and blue (dead) cells were counted. The total number of viable cells in aliquot was calculated by multiplying the total number of viable cells by 2 (the dilution factor for trypan blue). […] Percentages of viable cells were calculated using the formula: [drawing 1]
Figure 2 Effect of DIM-derivatives on Leishmania parasites. Growth of L. donovani AG83 promastigotes (A) and DIM resistant promastigotes (B) were monitored in presence of increasing concentrations (1, 5, 10, 20 and 50 µM) of DIM, DPDIM, DMDIM and DMODIM for 12 h. […] Change in IC50 values after a prolong exposure to DIM derivatives (C) has been assessed as described in Materials and Methods. After every 5 day a small aliquot was taken out and number of viable promastigotes was counted for each concentration. IC50 values have been determined from them using Graph Pad Prsim ver 5.0 software and a graphical plot was generated over time. […]

The test system of assay [2] is F270L mutant topoisomerase I. The assay is described as follows: Equilibrium (duplex oligonucleotide) cleavage assay, F270L mutant. Particulars: 20 µM, with respect to cleavable complex formed without drug with wild type enzyme. Type of assay: biochemical, Leishmania donovani. Here is the method:
Cells were lysed and proteins were purified through Ni^+2-NTA agarose column (Qiagen) followed by phosphocellulose column chromatography (P11 cellulose, Whatman) as described. Finally the purified proteins LdTOP1L, LdTOP1L^F270L and LdTOP1S were stored at −70°C. Purified LdTOP1L and LdTOP1L^F270L were mixed with purified LdTOP1S separately and at a molar ratio of 1∶1 at a total protein concentration of 0.5 mg/ml in reconstitution buffer (50 mM potassium phosphate, pH 7.5, 0.5 mM DTT, 1 mM EDTA, 0.1 mM PMSF, 10% glycerol). The mixtures were dialyzed over night at 4°C and the dialyzed fractions were used for the plasmid relaxation activity.
The 25-mer oligonucleotide 1 (5′-GAAAAAAGACTT↓AGAAAAATTTTTA-3′) was 5′-end labeled with [γ^32P] ATP and annealed with oligonucleotide 2 (5′-[…]-3′) to make a duplex oligonucleotide containing a topoisomerase I binding motif as described. Cleavage assay was carried out using 20-fold molar excess of enzymes over duplex 25-mer DNA (enzymes, 0.2 µM; DNA, 10 nM). The reactions were carried out in standard assay condition in the absence or presence of drugs at 37°C for 30 min. All the reactions were stopped by addition of SDS to a final concentration of 2% (w/v), digested with 5 µl of 1 mg/ml trypsin and analyzed by 12% denaturing polyacrylamide gel followed by autoradiography. The amount of strand cleavage in the presence of drugs was determined by densitometry of the film as described.
The effect of DIM and its derivatives on L. donovani topoisomerase I was examined by plasmid DNA cleavage assay as described. The topoisomerase reaction has three general mechanistic steps: (i) binding of enzyme to the substrate DNA, (ii) single strand breakage and subsequent strand rotation through the break leading to change in linking number, and (iii) strand religation. The second step of reaction is the introduction of a single-stranded nick in the phosphodiester bond of the DNA, through which an intact strand is allowed to pass. […]

pIC50: −log10 of the molar value.

Take `c1ccc(-c2[nH]c3ccccc3c2Cc2c(-c3ccccc3)[nH]c3ccccc23)cc1` [DPDIM, 2,2′-diphenyl 3,3′-diindolyl methane]: the values for the pIC50 in assay [1] and in assay [1] (24 h) were 7.30 and 5.64, respectively. The same compound showed an extent of cleavage in assay [2] of 56%.

For `COc1ccc2[nH]cc(Cc3c[nH]c4ccc(OC)cc34)c2c1` [DMODIM, 5,5′-dimethoxy 3,3′-diindolyl methane], in assay [1] (24 h), the negative logarithm of the IC50 (pIC50) (in general, −log10 of the IC50, conventionally taken in molar units) was 5.14. Further, the extent of cleavage in assay [2] is around 50%.

Consider `Cc1[nH]c2ccccc2c1Cc1c(C)[nH]c2ccccc12` [DMDIM, 2,2′-dimethyl 3,3′-diindolyl methane], for which the extent of cleavage in assay [2] is recorded as around 53%.
